According to publication PMC8134461, “A physicochemical assessment of the thermal stability of dextrin–colistin conjugates” (Scientific Reports, 2021):
Where a name gives a salt, the structure may show the parent alone. Positions of bridges follow the written chain, without caps; N, C: chain ends. Non-standard residues stand in square brackets, D forms with d. Residues, ends and D or L forms follow the SMILES beside them. *: point of attachment. X1 = CC[C@H](C)CCCCC(=O)*; Dab = NCC[C@H](N)C(=O)O

What was measured:
[1] = tested on: V5 Escherichia coli AIM-1, V6 Klebsiella pneumoniae IR25 and V19 Acinetobacter baumannii 7789; experiment: Antimicrobial activity after storage, MIC assay, statement over all test strains; assay type: cell-based; conditions: repeated freeze–thaw or storage in solution for up to 12 months at -20, 4 or 21 °C
Protocol: (§1) The clinical isolates (V5 Escherichia coli AIM-1, V6 Klebsiella pneumoniae IR25 and V19 Acinetobacter baumannii 7789) and susceptibility testing method have been previously described by Khan et al.[33] Bacterial colonies were grown on blood agar supplemented with 5% v/v defibrinated horse blood. Overnight cultures were prepared in tryptone soy broth (TSB) and Mueller–Hinton broth (MHB) was used for MIC determination (LabM; Bury, UK).
(§2) Three primary batches of colistin sulfate, CMS and dextrin-colistin conjugates were dissolved in PBS at 3 mg/mL and stored at − 20, 4, 21 and 37 °C for 0, 1, 3, 6, 9 and 12 months. In addition, to test the effect of repeated freeze–thaw on stability, a separate set of solutions were stored at − 20 °C and defrosted for 1 h at 20–22 °C weekly for 5 cycles. Samples were analyzed using FPLC (free drug) and GPC (saccharide release) and antimicrobial activity, UV/vis absorbance and protein content (bicinchoninic acid (BCA) assay) of the samples stored for 12 months was assessed.
The minimum inhibitory concentration (MIC) of colistin sulphate, CMS and dextrin-colistin conjugates was determined using the broth microdilution method in MH broth in accordance with standard guidelines. […] Results were expressed as mode (n = 3).

[2] = Stability during storage in PBS: saccharide release and elution profile by GPC; assay type: physicochemical; conditions: 3 mg/mL in PBS, up to 12 months; Ultrahydrogel 120, RI; CMS: after storage above -20 °C
Protocol: as §2
GPC was performed using an Ultrahydrogel guard column and two Ultrahydrogel 120 columns (7.8 mm × 300 mm) from Waters (Elstree, UK) in series, connected to a Jasco PU-1580 HPLC pump with PBS buffer eluent and a flow rate of 1 mL/min. Samples (300 μL) were injected into a 100 μL loop and the eluate was monitored using a Jasco MD-2010 multi-wavelength UV detector (210 and 280 nm) and a Gilson 153 differential refractometer (Middleton, WI, USA) connected to a Polymer Laboratories PL DataStream (Church Stretton, UK). Dual detection enabled distinction of dextrin and saccharide components that are not bound to colistin. Cirrus GPC software (version 3.2, 2006) from Polymer Laboratories (Church Stretton, UK) was used for data analysis. Glucose and maltose oligomers (DP 2, 3, 6 and 7) were employed for calibration. […]

[3] = tested on: V5 Escherichia coli AIM-1; experiment: MIC assay (broth microdilution) after storage; assay type: cell-based; conditions: 16–20 h, mode (n = 3), equivalent colistin concentration for conjugates; for MIC, Initial: before storage, 3 mg/mL in PBS, broth microdilution in MH broth; for MIC, storage temperature 4 °C: stored in PBS at 4 °C for 12 months; for MIC, storage temperature 4 °C / MIC, storage temperature 21 °C / MIC, storage temperature 37 °C / MIC, storage temperature -20 °C / MIC, repeat freeze–thaw: broth microdilution, MH broth; for MIC, storage temperature 21 °C: stored in PBS at 21 °C for 12 months; for MIC, storage temperature 37 °C: stored in PBS at 37 °C for 12 months; for MIC, storage temperature -20 °C: stored in PBS at -20 °C for 12 months; for MIC, repeat freeze–thaw: weekly freeze-thawing for 5 weeks (-20 °C, defrosted 1 h at 20–22 °C)
Protocol: as §1, §2
(§3) The minimum inhibitory concentration (MIC) of colistin sulphate, CMS and dextrin-colistin conjugates was determined using the broth microdilution method in MH broth in accordance with standard guidelines. Test organisms were suspended in MH broth (100 µL, 5 × 10^5 colony forming units (CFU)/mL) and incubated in 96-well microtitre plates in serial two-fold dilutions of the test compounds. The MIC was defined as the lowest concentration of test compound that produced no visible growth after 16–20 h. Results were expressed as mode (n = 3).

[4] = tested on: V19 Acinetobacter baumannii 7789; assay type: cell-based; conditions: 16–20 h, mode (n = 3), equivalent colistin concentration for conjugates; for MIC, Initial: before storage, 3 mg/mL in PBS, broth microdilution in MH broth; for MIC, storage temperature 4 °C: stored in PBS at 4 °C for 12 months; for MIC, storage temperature 4 °C / MIC, storage temperature 21 °C / MIC, storage temperature 37 °C / MIC, storage temperature -20 °C / MIC, repeat freeze–thaw: broth microdilution, MH broth; for MIC, storage temperature 21 °C: stored in PBS at 21 °C for 12 months; for MIC, storage temperature 37 °C: stored in PBS at 37 °C for 12 months; for MIC, storage temperature -20 °C: stored in PBS at -20 °C for 12 months; for MIC, repeat freeze–thaw: weekly freeze-thawing for 5 weeks (-20 °C, defrosted 1 h at 20–22 °C)
Protocol: as §1, §2, §3

[5] = tested on: V6 Klebsiella pneumoniae IR25; assay type: cell-based; conditions: 16–20 h, mode (n = 3), equivalent colistin concentration for conjugates; for MIC, Initial: before storage, 3 mg/mL in PBS, broth microdilution in MH broth; for MIC, storage temperature 4 °C: stored in PBS at 4 °C for 12 months; for MIC, storage temperature 4 °C / MIC, storage temperature 21 °C / MIC, storage temperature 37 °C / MIC, storage temperature -20 °C / MIC, repeat freeze–thaw: broth microdilution, MH broth; for MIC, storage temperature 21 °C: stored in PBS at 21 °C for 12 months; for MIC, storage temperature 37 °C: stored in PBS at 37 °C for 12 months; for MIC, storage temperature -20 °C: stored in PBS at -20 °C for 12 months; for MIC, repeat freeze–thaw: weekly freeze-thawing for 5 weeks (-20 °C, defrosted 1 h at 20–22 °C)
Protocol: as §1, §2, §3

Compound	change of antimicrobial activity (MIC) after storage [1]	change of GPC elution profile after storage [2]	MIC, Initial [3] [µg/mL]	MIC, storage temperature 4 °C [3] [µg/mL]	MIC, storage temperature 21 °C [3] [µg/mL]	MIC, storage temperature 37 °C [3] [µg/mL]	MIC, storage temperature -20 °C [3] [µg/mL]	MIC, repeat freeze–thaw [3] [µg/mL]	MIC, Initial [4] [µg/mL]	MIC, storage temperature 4 °C [4] [µg/mL]	MIC, storage temperature 21 °C [4] [µg/mL]	MIC, storage temperature 37 °C [4] [µg/mL]	MIC, storage temperature -20 °C [4] [µg/mL]	MIC, repeat freeze–thaw [4] [µg/mL]	MIC, Initial [5] [µg/mL]	MIC, storage temperature 4 °C [5] [µg/mL]	MIC, storage temperature 21 °C [5] [µg/mL]	MIC, storage temperature 37 °C [5] [µg/mL]	MIC, storage temperature -20 °C [5] [µg/mL]	MIC, repeat freeze–thaw [5] [µg/mL]
CC[C@H](C)CCCCC(=O)N[C@@H](CCN)C(=O)N[C@H](C(=O)N[C@@H](CCN)C(=O)N[C@H]1CCNC(=O)[C@H]([C@@H](C)O)NC(=O)[C@H](CCN)NC(=O)[C@H](CCN)NC(=O)[C@H](CC(C)C)NC(=O)[C@@H](CC(C)C)NC(=O)[C@H](CCN)NC1=O)[C@@H](C)O [Colistin sulfate, colistin sulfate] (X1-[Dab]T[Dab][Dab][Dab][dL]L[Dab][Dab]T; lactam 4-C (inferred); N-terminus assumed)	unaffected	largely unchanged	0.004	0.002	0.016	0.25	0.002	0.004	0.063	0.031	0.125	32	0.063	0.063	0.125	0.125	0.5	> 128	0.063	0.25
Colistimethate sodium [CMS]	unaffected	Significant changes in the elution profile	0.125	0.063	0.063	8	0.031	0.031	0.5	0.125	0.25	64	0.25	0.125	2	1	1	128	1	0.5
